Laboratory results taken from patent US9688673B2, “Deoxycytidine kinase binding compounds” (THE REGENTS OF THE UNIVERSITY OF CALIFORNIA, priority 2011, dated 2017).
Entries after “also recorded” stand apart in the source; their conditions may differ.

Key:
dCK activity = molecular target: T1, dCK activity (Mus musculus, UniProt P43346); assay: Inhibition of dCK activity in vivo by 18F-FAC PET/CT imaging; details: mice
T1 construct: dCK expressing tissues such as Thymus (Thy), Bone marrow (BM), spleen (S) and the GI tract; from tissue; host or cells: living mice: thymus, bone marrow, spleen, GI tract
T1 sequence (P43346 whole entry): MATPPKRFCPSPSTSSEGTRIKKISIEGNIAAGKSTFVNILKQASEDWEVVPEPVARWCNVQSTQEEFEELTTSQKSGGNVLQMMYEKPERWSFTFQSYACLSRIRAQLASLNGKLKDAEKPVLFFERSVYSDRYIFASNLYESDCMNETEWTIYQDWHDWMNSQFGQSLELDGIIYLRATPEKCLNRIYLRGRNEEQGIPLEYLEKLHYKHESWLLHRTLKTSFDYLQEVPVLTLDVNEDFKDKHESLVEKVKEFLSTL
Method: Mice were treated with the dCK inhibitor and scanned at indicated time points by ^18F-FAC PET/CT to non-invasively determine dCK activity in vivo, throughout the body. ^18F-FAC PET/CT scans were performed as described in Shu, C. J. et al., “Novel PET probes specific for deoxycytidine kinase” J. Nucl.

[1] = tested on: CCRF-CEM (CEM) human acute T lymphoblastic leukemia; assay: S-phase arrest by flow cytometry, CEM cells; type: cell-based
Method: (§1) At the end of the incubation period cells were analyzed by flow cytometry to determine the effects of the treatment on cell cycle progression.

[2] = tested on: NALM-6 human acute B lymphoblastic leukemia; assay: S-phase arrest by flow cytometry, NALM-6 cells; type: cell-based
Method: as §1

[3] = tested on: IGROV1 human ovarian adenocarcinoma; assay: S-phase arrest by flow cytometry, IGROV1 cells; type: cell-based
Method: as §1

[4] = tested on: CCRF-CEM (CEM) human acute T lymphoblastic leukemia; assay: Leukemic cell proliferation and viability, CEM cells, 72 hours; type: cell-based
Method: Addition of 2.5 μM dC rescued the cell cycle from the thymidine block by the salvage pathway.

CEM shC cells = assay: Growth of CEM cells treated with dT and/or dC over 7 days; type: cell-based, human; details: period of 7 days
Description: Compound F2.2.1 was not used in “Mock” experiments in either panel A or B.

Primary murine T cells = assay: In vitro T lymphocyte proliferation (CFSE, flow cytometry); type: cell-based, C57/BL6 mice; details: 1 μM final concentration, 72 hours after activation
Method: Primary murine T cells were obtained from C57/BL6 mice. […] Prior to antibody-mediated activation, T cells were labeled with the fluorescent dye CFSE to allow measurements of cell division. […] The dCK inhibitors were used at 1 μM final concentration.

[5] = tested on: A549 human lung adenocarcinoma cells; assay: Cell proliferation and viability, A549 cells, 72 hours; details: 1 μM F2.2.1 + 1 mM dT
Method: At the end of the incubation period cells were analyzed by flow cytometry to determine the effects of the treatment on cell proliferation and viability.

[6] = tested on: NALM-6 human acute B lymphoblastic leukemia; assay: Cell proliferation and viability, NALM-6 cells, 72 hours; details: 1 μM F2.2.1 + 1.6 mM dT, media with 1.25 μM deoxycytidine
Method: At the end of the incubation period cells were analyzed by flow cytometry to determine the effects of the treatment on leukemic cell proliferation and viability.

[7] = molecular target: deoxycytidine kinase (dCK) (Homo sapiens, UniProt P27707); assay: Inhibition of [3H]-deoxycytidine (dCyd) uptake by CEM cells; details: for Inhibition of [3H]-dCyd uptake by CEM cells, in words: ranking within panel / compared with DI-0105, DI-0110 and DI-0120
Sequence of deoxycytidine kinase (dCK) (P27707 whole entry): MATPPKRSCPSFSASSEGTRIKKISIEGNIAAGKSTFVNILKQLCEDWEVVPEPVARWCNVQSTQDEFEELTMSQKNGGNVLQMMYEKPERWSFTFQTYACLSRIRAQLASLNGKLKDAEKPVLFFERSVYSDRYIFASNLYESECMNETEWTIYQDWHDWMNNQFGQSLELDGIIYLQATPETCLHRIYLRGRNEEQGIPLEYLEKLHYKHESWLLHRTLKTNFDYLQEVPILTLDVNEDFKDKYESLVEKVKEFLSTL
Method: Potency of dCK inhibitory activities of the compounds can be tested by measuring cellular substrate uptake and phosphorylation, for examples, uptake of [^3H]-deoxycytidine (dCyd or dC) into CEM (human) or L1210 (mouse) cells.
50,000 CEM cells/well were added to Millipore MultiScreen GV 96 well plates. Cells were resuspended at 1×10^6 cells/mL and incubated for 30 minutes at 37° C. The drug dilution plate was prepared by starting with an initial drug concentration of 10 mM in DMSO, and proceeding to make 1:5 dilutions for drug. 10 mL of drug was added to 40 mL DMSO and mixed by pipetting 10 times before removing 10 uL for next well (1:5 serial dilutions). The media and tritiated deoxycytidine was mixed together. 245 mL of media/probe mixture was added to each well of an Optiplate. 5 mL from drug plate was added to each well in the Optiplate to obtain drug/media/probe mixture and mixed. 50 mL of drug/media/probe mixture from Optiplate was added to the cell plate and incubate at 37° C. for 1 hour. The cell plate was placed on vacuum to aspirate, and then washed with ice cold PBS: 200 mL 1×PBS 4 times. The backing of the plate was peeled off, and the plate was placed in dryer for at least 30 minutes or until dry at 37° C. 100 mL Scintillation fluid per well was added, and the plate was sealed with clear plate seal. The plate was read on the Microbeta instrument.

thymidine (dT) uptake = assay: Inhibition of thymidine (dT) uptake (selectivity vs. dC uptake); details: read-out: dCKi IC50 dT
Description: Potency of dCK inhibitory activities of the compounds can be tested by measuring cellular substrate uptake and phosphorylation, for examples, uptake of [^3H]-deoxycytidine (dCyd or dC) into CEM (human) or L1210 (mouse) cells. The compounds may be further screened for low off-target toxicity (e.g., inhibition of growth and proliferation of dCK negative cells) and selectivity over other nucleoside kinases (e.g., thymidine kinase).

COc1ccc(-c2nc(CSc3nc(N)cc(N)n3)c(C)s2)cc1OCCF [Compound F2.2.1]
Duration of inhibition of dCK activity in vivo in multiple tissues (dCK activity; 200 mg/kg oral gavage): at least 2 hours | 18F-FAC signals in dCK expressing tissues (dCK activity; Thymus, Bone marrow, spleen and GI tract): Significant decrease | 18F-FAC signals in the bladder (dCK activity; bladder, probe clearance organ): not affected | dT + dCKi % S-phase arrest (of cells in cycle) ([1]; 50 mM dT + 1 mM F2.2.1, 24 hours): 84.5% | dT + dCKi % S-phase arrest (of cells in cycle) ([2]; NALM-6, 1.6 mM dT + 1 mM F2.2.1, 24 hours): 79.8% | dT + dCKi % S-phase arrest (of cells in cycle) ([3]; IGROV1, 1 mM dT + 1 mM F2.2.1, 24 hours): 60.3% | Growth / proliferation of CEM cells, combination with thymidine ([4]; 1 μM F2.2.1 + 50 μM dT): almost completely shut down the growth of CEM cells; also recorded: significantly reduce the proliferation | Effect on cell viability, compound alone ([4]; 1 μM alone): little effect on cell viability | Growth of thymidine (dT) treated CEM cells (CEM shC cells): completely suppressed the growth | T cell proliferation (Primary murine T cells): significantly blocks T cell proliferation | Proliferation of A549 cells, combination with thymidine [5]: significantly reduce the proliferation | Proliferation of NALM-6 cells, combination with thymidine [6]: significantly reduce the proliferation | Inhibition of [3H]-dCyd uptake by CEM cells, in words [7]: superior activities | IC50 (thymidine (dT) uptake): 4930 nM

CCCc1sc(-c2ccc(OC)c(OCCO)c2)nc1CSc1nc(N)cc(N)n1 [DI-26]
T cell proliferation (Primary murine T cells): significantly blocks T cell proliferation

CCCc1sc(-c2ccc(OC)c(OCCO)c2)nc1CSc1nccc(N)n1 [DI-27]
Inhibition of [3H]-dCyd uptake by CEM cells, in words [7]: among the most potent compounds in this panel

CCCc1sc(-c2cccc(OCCO)c2)nc1CSc1nc(N)cc(N)n1 [DI-29]
Inhibition of [3H]-dCyd uptake by CEM cells, in words [7]: among the most potent compounds in this panel

CCCc1sc(-c2ccnc(OCCO)c2)nc1CSc1nc(N)cc(N)n1 [DI-30]
EC50 [7]: 2.5 nM | Inhibition of [3H]-dCyd uptake by CEM cells, in words [7]: among the most potent compounds in this panel; also recorded: superior activities

CCOc1ccc(-c2nc(CSc3nc(N)cc(N)n3)cs2)cc1OC [DI-0105]
EC50 [7]: 133 nM

COc1ccc(-c2nc(CSc3nc(N)cc(N)n3)cs2)cc1 [DI-0110]
EC50 [7]: 478 nM

COc1ccc(Br)cc1-c1nc(CSc2nc(N)cc(N)n2)cs1 [DI-0120]
EC50 [7]: 779 nM

Cc1cn([C@H]2C[C@H](O)[C@@H](CO)O2)c(=O)[nH]c1=O [dT, thymidine, reference compound]
dT without dCKi % S-phase arrest (of cells in cycle) ([1]; 50 mM dT, 24 hours): 36% | dT without dCKi % S-phase arrest (of cells in cycle) ([2]; NALM-6, 1.6 mM dT, 24 hours): 52% | dT without dCKi % S-phase arrest (of cells in cycle) ([3]; IGROV1, 1 mM dT, 24 hours): 35.9% | Cell growth and cell cycle, thymidine alone ([4]; dT at 50 μM): suppressed cell growth but failed to shut down the cell cycle

Nc1ccn([C@H]2C[C@H](O)[C@@H](CO)O2)c(=O)n1 [deoxycytidine (dC), deoxycytidine]
Number of viable cells relative to vehicle control, deoxycytidine ([4]; 2.5 μM dC): decreased the number of viable cells
